Two molecules from patent US5622982A, “Acylated aminoalkanimidazoles and - triazoles” (Sandoz Ltd., priority 1994, dated 1997) can be followed below.

SMILES strings stand for the structures. Read-outs that look alike come from different tables or passages of the source.

Holding throughout (type): cell-based
The subject of one assay is human keratinocytes. Nature of the assay: 3H-Thymidine incorporation into human keratinocytes, antiproliferative effects of vitamin D metabolites in the presence of inhibitors (test b)). The settings on record: Keratinocyte; test b). On the technique in general: Uptake of a labelled nucleoside into DNA is a usual measure of proliferation.
In another assay the target is T1, 25(OH)D3-1-hydroxylase (Homo sapiens, UniProt O15528).
T1 construct: Confluent cultures of human keratinocytes in KGM; endogenous in cells; host or cells: normal human epidermal keratinocytes (adult skin from mammary reduction), generally second passage
T1 sequence (O15528 1-508): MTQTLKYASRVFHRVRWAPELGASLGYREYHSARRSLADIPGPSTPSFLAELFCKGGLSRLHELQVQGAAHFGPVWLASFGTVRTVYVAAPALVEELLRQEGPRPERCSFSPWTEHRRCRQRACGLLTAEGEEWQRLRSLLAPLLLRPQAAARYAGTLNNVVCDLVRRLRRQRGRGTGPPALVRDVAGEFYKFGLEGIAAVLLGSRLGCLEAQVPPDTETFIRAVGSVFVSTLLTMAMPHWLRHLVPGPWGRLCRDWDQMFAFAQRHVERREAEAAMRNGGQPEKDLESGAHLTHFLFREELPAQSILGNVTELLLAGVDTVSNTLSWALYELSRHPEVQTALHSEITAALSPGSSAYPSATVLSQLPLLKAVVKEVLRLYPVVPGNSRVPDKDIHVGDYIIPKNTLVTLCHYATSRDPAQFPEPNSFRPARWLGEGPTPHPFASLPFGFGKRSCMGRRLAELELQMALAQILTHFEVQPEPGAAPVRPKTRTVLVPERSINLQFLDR
In words: Inhibition of vitamin D3-1-hydroxylase (oxidation of 3H-25(OH)D3, test a)). Conditions: for IC50: test a), human keratinocytes, 1 hour, without calcitriol pretreatment.

The target of assay [1] is T2, 25-hydroxyvitamin D3-hydroxylases which attack the C20-27-side chain of vitamin D3 (Homo sapiens, UniProt Q07973).
T2 construct: Confluent human keratinocytes in 1 ml of KGM and in 6-well plates; endogenous in cells; host or cells: normal human epidermal keratinocytes pretreated overnight (16-17 h) with 10 nM calcitriol
T2 sequence (Q07973 36-514): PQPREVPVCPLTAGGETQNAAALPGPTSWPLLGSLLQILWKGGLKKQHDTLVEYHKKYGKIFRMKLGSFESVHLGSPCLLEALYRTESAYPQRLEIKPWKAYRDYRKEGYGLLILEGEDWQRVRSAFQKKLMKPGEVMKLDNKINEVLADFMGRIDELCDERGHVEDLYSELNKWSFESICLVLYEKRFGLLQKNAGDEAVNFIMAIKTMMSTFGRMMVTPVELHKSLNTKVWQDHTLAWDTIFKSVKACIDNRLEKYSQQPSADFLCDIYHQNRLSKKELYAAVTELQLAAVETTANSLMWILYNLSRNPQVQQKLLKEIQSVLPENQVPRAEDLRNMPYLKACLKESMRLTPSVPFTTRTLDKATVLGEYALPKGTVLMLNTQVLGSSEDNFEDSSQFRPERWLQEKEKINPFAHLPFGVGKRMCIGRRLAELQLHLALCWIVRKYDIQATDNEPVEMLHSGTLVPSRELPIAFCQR
In words: Inhibition of side chain metabolism / vitamin D3-hydroxylases attacking the C20-27 side chain in calcitriol-pretreated keratinocytes (test a)). The settings on record: for inhibition of 25-hydroxyvitamin D3-hydroxylases which attack the C20-27 side chain (in words): selectivity versus calcitriol synthesis; for IC50: test a), human keratinocytes, pretreated with 10 nM calcitriol.
Procedure: This can be determined in confluent cultures of human keratinocytes directly, while for determination of the activity of the hydroxylases attacking the C20-27--side chain a 16 hours pretreatment schedule of the confluent cultures with 1,25(OH)2 D3 (10 nM) has to precede which upregulates these activities (both methods are described in Bikle, D. D. et al., J. Clin. Invest. 78, 557 [1986]).
(§1) a) Selective inhibition of Vitamin D3--hydroxylases:
(§2) Confluent cultures of human keratinocytes in KGM at low calcium (0.06 mM) have a high capacity to produce calcitriol via the 1-hydroxylase, however, activities of sequential metabolism via side chain oxidation are almost entirely lacking. Therefore, the inhibition of the 1-hydroxylase in the confluent cultures is determined directly, and the inhibition of sequential metabolism after up-regulation of the respective hydroxylases, e.g. the 24-hydroxylase, is determined by an overnight (17 hours) pretreatment with 10 nM of calcitriol as described by Bikle et al. (1986) (supra).
(§3) The activities of the 1-hydroxylase and of particular steps in the sequential metabolism [e.g. formation of 1,24,25(OH)3 D3+1,24oxo,25(OH)2 D3] which still retain calcitriol-like activities, the formation of 3-epi calcitriol metabolites, of polar metabolites retained in the water phase and those indicative of side-chain cleavage and their inhibition by the test compounds are determined by following the oxidation of ^3 H-25(OH)D3 (Amersham; specific activity about 0.61 mCi/nmole) as follows:
(§4) Confluent human keratinocytes in 1 ml of KGM and in 6-well plates are incubated in duplicate at 37° with ^3 H-25(OH)D3 for 1 hour (1-hydroxylase), 4 hours (sequential metabolism) and for a range of time interals between 1 and 24 hours, without and after preincubation with 10 nM of calcitriol, and without and with test inhibitory compounds added in a concentration range between 0 and 10 μM. Thereafter, the reaction is stopped with 1 ml of methanol per well, the cells are scraped off, transferred to a test tube together with the supernatant and two washings (with 1 ml of methanol and 0.8 ml of water).

[2] abbreviates: in presence of 1α,25(OH)2 D3, read-out: IC50 as regards the concentration required to double the antiproliferative effect of 1α,25(OH)2 D3.
Where [3] appears, read: in presence of 25(OH)D3, read-out: IC50 as regards the concentration required to double the antiproliferative effect of 25(OH)D3.
Where [4] appears, read: read-out: IC50 for stabilization of 3-epi 1,25(OH)2 D3 levels.
[5] abbreviates: read-out: IC50 for stabilization of levels of the sum of 1,25(OH)2 D3, 1,24,25(OH)3D3 and 1,24oxo,25(OH)2 D3.

Procedure for 25(OH)D3-1-hydroxylase: Activity of the 1-hydroxylase:
as §1, §2, §3, §4
Procedure for human keratinocytes: Normal human keratinocytes are isolated from fresh adult skin obtained from mammary reduction and immediately used under sterile conditions. […] These conditions are chosen in order to avoid undefined contributions from vitamin D--metabolites possibly retained in the serum and/or feeder layer. After separation of the epidermis from the dermis with a sterile dermatome the epidermis is incubated in a 0.25% trypsin solution for 45 minutes at 37°. Thereafter the cells are scraped off and put in 50 ml of HBSS containing 10% FCS to block further trypsin digestion and centrifuged at 2000 rpm for 2 minutes. The resulting cell pellet suspended in KGM, a defined serum-free medium at low (0.06 mM) calcium concentration containing 0.1 ng/ml EGF, 5 μg/ml insulin, 0.5 μg/ml hydrocortisone, bovine pituitary extract and antibiotics (gentamycin, amphothericin) gives the primary culture. After 24 hours at 37° in an incubator with carbogen gassing (95% O2 /5% CO2) the unattached cells are removed, the flask washed and provided with fresh KGM. The culture medium is changed then every alternate day and the cells are passaged when they reach 80-90% confluency (usually 6 to 10 days after plating). For passaging old KGM is removed and the attached keratinocytes displaced by a short treatment (5 minutes) with 0.125% of trypsin, then put into HBSS+FCS, centrifuged and eventually resuspended in KGM in such a way that 1 plate of primary culture yields 3 plates first passage cells. In order to expand the final cell number keratinocytes are further cultivated as described above and generally used in their second passage.
^3 H-Thymidine incorporation is measured in 96-well plates as follows: Keratinocytes in 200 μl of KGM at low calcium concentration are plated at an initial density of 10^4 cells per well (second passage) and kept for 24 hours at 37° in an incubator with carbogen gassing (95% O2 /5% CO2). […]
Harvesting is done on a Filtermate 196-Harvester (Packard-Canberra). […] 50 μl of scintillation cocktail (MicroScint O, Packard) are added and ^3 H-activity is counted on a Microplate Scintillation Counter (Topcount, Packard Canberra).
Data are used as means ±SEM (n=3). The IC50 -values for the inhibition of proliferation by the vitamin D--metabolites in the presence of varying concentrations of inhibitors of side chain metabolism and vice versa are assessed by plotting the inverse proliferation rate versus one inhibitor concentration, with the concentration of the other inhibitors kept constant (Dixon Plot). Independent of the mechanism of inhibition the IC50 -values can be read in this plot from the intercept on the x-axis.

As for `O=C(NC[C@H](c1ccccc1)n1ccnc1)c1ccc(-c2ccc(Cl)cc2)cc1` [Example 8, N-[4-(4-Chlorophenyl)benzoyl]-2-(1H-imidazol-1-yl)-2(S)-phenyl-1-aminoethane], the IC50 in the assay on human keratinocytes (setting [2]) is 30 nM; in the assay on human keratinocytes (setting [3]) it was 11 nM; at 25(OH)D3-1-hydroxylase, 530 nM; in assay [1] (setting [4]), 40 nM; in assay [1] (setting [5]) it was 45 nM. Further, the “interference with calcitriol synthesis via the 25(OH)D3-1-hydroxylase (in words)” value on 25(OH)D3-1-hydroxylase is “without interfering with its synthesis”. Moreover, the “inhibition of 25-hydroxyvitamin D3-hydroxylases which attack the C20-27 side chain (in words)” value in assay [1] is listed as “selective inhibitors”.

With `O=C(NC[C@@H](c1ccccc1)n1ccnc1)c1ccc(-c2ccc(Cl)cc2)cc1` [Example 9, N-[4-(4-Chlorophenyl)benzoyl]-2-(1H-imidazol-1-yl)-2(R)-phenyl-1-aminoethane], the IC50 with human keratinocytes (setting [2]) came out at 35 nM; in the assay with human keratinocytes (setting [3]), 12 nM; on 25(OH)D3-1-hydroxylase, 620 nM; in assay [1] (setting [4]) it was 12 nM; in assay [1] (setting [5]) it was 19 nM. For the same molecule, the “interference with calcitriol synthesis via the 25(OH)D3-1-hydroxylase (in words)” value on 25(OH)D3-1-hydroxylase is listed as “without interfering with its synthesis”. Further, the “inhibition of 25-hydroxyvitamin D3-hydroxylases which attack the C20-27 side chain (in words)” value in assay [1] was “selective inhibitors”.
